Measured values from patent US7019029B2, “Skin whiteners containing hydroxytetronic acid derivatives” (priority 2000, dated 2006).

Tested on: hyperpigmented skin areas of melasma patients
Assay: Study in melasma patients: topical treatment of hyperpigmented skin areas
Type: in vivo, human
Conditions: oil-in-water emulsion containing about 10% compound, twice daily for 5 to 7 days, 4 melasma patients, observed in all the patients
Protocol: The efficacy of a preferred embodiment of the invention was tested in a clinical trial. An oil-in-water emulsion containing about 10% 4-diphenyl-2-hydroxytetronic acid was applied to various pigmented areas of the skin of 10 subjects twice daily. On normal pigmented skin types 2 and 3, visually apparent lightening was observed within 4 to 6 hours of application when compared to surrounding, untreated skin areas of the same subject. In another study, the hyperpigmented skin areas of 4 melasma patients were treated twice daily for 5 to 7 days.

## O=C1OC(c2ccccc2)(c2ccccc2)C(O)=C1O [4-diphenyl-2-hydroxytetronic acid, 3,4-dihydroxy-5-diphenyl-2(5H)-furanone]
  lightening of the pigmented lesions: Significant lightening
